The text below walks through data of paper PMC12640663 (Chemmedchem, 2025).

Molecules are shown by their SMILES. Values joined by “and” are separate entries in the source; they are usually repeats but may differ in a detail not shown here. Equal values may be shown once. “Also recorded” adds a separate entry of the source.

Data set [1] addresses T1, hPTP1B1–400 (Homo sapiens, UniProt P18031).
T1 sequence (P18031 1-400): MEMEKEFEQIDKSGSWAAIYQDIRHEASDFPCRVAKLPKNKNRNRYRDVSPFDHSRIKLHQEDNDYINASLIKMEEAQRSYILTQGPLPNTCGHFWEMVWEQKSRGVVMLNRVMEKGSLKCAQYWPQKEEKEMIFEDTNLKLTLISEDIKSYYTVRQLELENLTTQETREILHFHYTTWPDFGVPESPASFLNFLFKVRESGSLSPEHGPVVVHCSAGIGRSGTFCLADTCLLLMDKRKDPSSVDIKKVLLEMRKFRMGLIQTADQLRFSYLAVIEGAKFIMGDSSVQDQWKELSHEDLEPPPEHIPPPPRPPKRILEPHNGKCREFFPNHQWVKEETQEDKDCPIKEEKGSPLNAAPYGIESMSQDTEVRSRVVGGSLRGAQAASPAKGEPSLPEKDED
Kind of data set: PTP1B activity assay, long form hPTP1B1–400 (p‐NPP). Format: biochemical. Particulars: for IC50: ± S.D, p‐NPP substrate, 15 min at 37 °C, triplicate. On the set-up: hPTP1B1–400 (the long form with an intrinsically disordered C‐terminal regulatory domain). On the procedure: (§1) The inhibitory activity of PTP1B was assessed using two enzyme variants: hPTP1B1–285 (the short form with an N‐terminal catalytic domain) and hPTP1B1–400 (the long form with an intrinsically disordered C‐terminal regulatory domain). […] According to Coronel‐Tovar et al., the disordered region of the C‐terminal domain plays a crucial role in modulating PTP1B enzymatic activity.^[ [30] ^] […] Different concentrations of the compounds were evaluated to determine their IC50 values (Table 1 ).
(§2) Recombinant human protein tyrosine phosphatase 1B, consisting of 400 and 285 amino acid residues, was used.^[ [35] ^] […] Aliquots of 0–10 µL of the test compounds (triplicate) were taken and incubated for 15 min at 37 °C with 85 µL of Tris buffer solution (50 mM, pH 6.8) containing PTP1B enzyme and 5 µL of p‐nitrophenyl phosphate substrate (p‐NPP, 10 mM). Absorbance was then measured at a wavelength of 405 nm. The inhibitory activity was determined according to Equation (1). (1) % PTP1B=(A405b/A405c)×100 where % PTP1B: Is the percentage of inhibition. A 405c: Is the corrected absorbance of the blank (A 405initial–A 405final). A 405b: Is the corrected absorbance of the compounds (A 405control–A 405compound).

Another data set has as its target T2, TCPTP (Homo sapiens, UniProt P17706).
T2 sequence (P17706 1-415): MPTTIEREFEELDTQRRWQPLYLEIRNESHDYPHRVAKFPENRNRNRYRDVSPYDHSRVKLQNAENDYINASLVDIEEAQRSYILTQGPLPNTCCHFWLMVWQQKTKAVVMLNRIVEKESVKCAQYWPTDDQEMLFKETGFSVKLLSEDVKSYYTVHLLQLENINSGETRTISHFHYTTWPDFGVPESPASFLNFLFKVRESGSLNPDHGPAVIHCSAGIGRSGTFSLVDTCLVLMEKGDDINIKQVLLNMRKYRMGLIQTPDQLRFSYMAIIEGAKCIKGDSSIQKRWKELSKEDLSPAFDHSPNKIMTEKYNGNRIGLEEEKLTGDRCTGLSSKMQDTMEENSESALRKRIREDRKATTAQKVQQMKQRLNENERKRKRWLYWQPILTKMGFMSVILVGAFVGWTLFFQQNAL
As to the kind of experiment: T‐cell protein tyrosine phosphatase (TCPTP) activity assay (p‐NPP). Particulars: for IC50: ± S.D, assessed up to 100 μM, read-out: TCPTP IC50; for TCPTP inhibition (in words): up to 100 μM. It counts as biochemical. The procedure:
The effectiveness and safety of protein tyrosine phosphatase (PTP) inhibitors depend on their specificity. PTP1B and TCPTP serve different functions: PTP1B is involved in metabolism and cancer, while TCPTP regulates immune function. Inhibiting TCPTP could impact the immune response, whereas inhibiting PTP1B may benefit metabolic diseases without these side effects.^[ [20] ^, [34] ^, [35] ^] […] These compounds were assessed up to 100 μM (Table 1).
TCPTP enzyme reported by Mendoza et al. was used for this assay. […] Aliquots of 0–10 µL (triplicate) of the newly synthesized compounds, positive control, and solvent were taken. These were incubated with 85 µL of enzyme solution (Tris, 50 mM, pH 6.8, TCPTP) and 5 µL of substrate (p‐NPP, 10 mM) for 15 min at 37 °C.

In another data set the target is T3, hPTP1B1–285 (Homo sapiens, UniProt P18031).
T3 construct: hPTP1B1–285 (the short form with an N‐terminal catalytic domain)
T3 sequence (P18031 1-285): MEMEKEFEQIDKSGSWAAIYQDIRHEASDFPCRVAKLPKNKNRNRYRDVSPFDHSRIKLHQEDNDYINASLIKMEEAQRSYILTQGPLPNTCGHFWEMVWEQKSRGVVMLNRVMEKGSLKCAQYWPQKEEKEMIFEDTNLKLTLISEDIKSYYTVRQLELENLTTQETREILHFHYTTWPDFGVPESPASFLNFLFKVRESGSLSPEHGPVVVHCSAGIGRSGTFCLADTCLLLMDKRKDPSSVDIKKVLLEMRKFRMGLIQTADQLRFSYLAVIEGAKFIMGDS
As to the kind of experiment: PTP1B activity assay, short form hPTP1B1–285 (p‐NPP). Format: biochemical. Particulars: ± S.D; p‐NPP substrate, 15 min at 37 °C. The procedure:
as §1
To do so, these terpenoids were tested against hPTP1B1–285.
as §2

Another data set has as its system HepG2 cells. As to the kind of experiment: Cell viability with crystal violet. Format: cell-based. The conditions noted are these: 1 and 25 µM, 24 h. On the procedure: Subsequently, we evaluated the same compounds in a HepG2 insulin‐resistant model.
A 96‐well plate was seeded with 3,000 cells per well and incubated for 24 h. Afterward, the cells were treated with test compounds at various concentrations for 24 h. After incubation, the media was removed, and 100 µL of 1% glutaraldehyde was added for 15 min. Afterward, the liquid was removed, and 50 µL of 0.5% crystal violet (dissolved in 25% methanol) was added for 30 min. The crystal violet staining solution was removed, and the plate was thoroughly washed with tap water. The precipitate was dissolved in a 10% acetic acid solution and mixed for 15 min. The absorbance was then measured at 590 nm using a plate reader (xMark Microplate Spectrophotometer—Bio‐Rad).
Figure S59. Cell viability assessment by crystal violet staining. HepG2 cell viability was evaluated
after treatment with the respective compounds at concentrations of 1 and 25 µM for 24 hours. Bar
graphs represent mean ± SEM.

Data set [2] addresses T1, hPTP1B1–400. As to the kind of experiment: Kinetic studies of PTP1B (hPTP1B1–400).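 Also: enzyme kinetics run across a range of substrate and inhibitor levels, control lacking inhibitor, triplicate runs, parameters derived by fitting Michaelis–Menten style equations.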
Method: Kinetic analyses were performed at various substrate and inhibitor concentrations.
The negative control was prepared with the enzyme and substrate in the absence of the inhibitor. Experiments were conducted in triplicate.^[ [30] ^] […] The kinetic parameters of enzyme inhibition, K m and V max, were determined by fitting the data to the Michaelis‐Menten model, Equation (3) (OriginPro 2018 (64‐bit) SR1). (3) y=VmaxX/Km+X´ where V max: is the maximum velocity, X: is the inhibitor concentration, K m: Michaelis constant.
(4) y=Vmax(X)/(Km/1+I/Ki)+X where V max: maximum velocity, X: substrate concentration, I: inhibitor concentration, K m: Michaelis constant, K i : inhibition constant.
On the set-up of data set [3]: method as in PMID 37628991. The conditions noted are these: cited from earlier work.
The test system of another data set is PTP1B. Particulars: cited from earlier work.
For data set [4], the system named is streptozotocin‐induced diabetic rats. On the set-up: method as in PMID 37628991. The conditions noted are these: cited from earlier work.
Setting [5] is: ± S.D, hPTP1B1–400 with inhibitor.
[6] abbreviates: streptozotocin‐induced diabetic rats.

In general, IC50 refers to the concentration that inhibits the measured activity by half. The term Ki denotes a dissociation constant, usually derived from enzyme kinetics or from competition with a known ligand. Read a high Ki as a looser hold on the target. As for `Cc1ccc(-n2ncc3c2C(C)(C)C2CCC4(C)C(C(=O)C=C5C6CC(C)(C(=O)O)CCC6(C)CCC54C)C2(C)C3)cc1` (stereo not shown) [Compound 5c], the IC50 against hPTP1B1–400 [1] was 1570 ± 40 nM; at TCPTP, over 100000 nM; against hPTP1B1–285, 31600 ± 880 nM. In addition, in the data set with HepG2 cells, the HepG2 cell viability entry is given as “No significant differences; also recorded: did not compromise HepG2 cell viability”. Besides, the inhibition constant Ki at hPTP1B1–400 [2] (K i, ± S.D, hPTP1B1–400, p‐NPP 0.1 to 0.5 mM) is 220 nM and 224 nM. Also, on hPTP1B1–400 [2] (hPTP1B1–400), the Inhibition type result was “uncompetitive inhibition”. In addition, on hPTP1B1–400 [2] (setting [5]), the K m amounted to 1420 ± 320 µM. On hPTP1B1–400 [2] (setting [5]), the V max is 1.54 ± 0.28 mM/min.

`CC1(C(=O)O)CCC2(C)CCC3(C)C(=CC(=O)C4C5(C)Cc6c([nH]c7ccc(C(F)(F)F)cc67)C(C)(C)C5CCC43C)C2C1` (stereo not shown) [FC‐114] registered an IC50 against hPTP1B1–400 [1] of 480 ± 6 nM. In addition, at TCPTP, the “TCPTP inhibition (in words)” value is on record as “did not inhibit TCPTP” and the IC50 is over 100000 nM. The “doses at which safe” value in data set [3] is “below 2000 mg kg^−1”. Moreover, in the data set on PTP1B, the “times better potency against PTP1B than 18β‐GA” value is listed as 25 times and the “type of PTP1B inhibition” value is reported as “noncompetitive inhibitor”. Besides, the HepG2 cell viability result in the data set with HepG2 cells is “did not compromise HepG2 cell viability”. Also, the HepG2 cell viability result in the data set on HepG2 cells (listed as FC-114) was “No significant differences”. Besides, the antidiabetic activity entry in data set [4] is listed as “showed antidiabetic activity”. For the same compound, in data set [4] (streptozotocin‐induced diabetic rats, compared with glibenclamide), the insulin levels entry is listed as “increased insulin levels more than glibenclamide”. In data set [4] (setting [6]), the HDL cholesterol result was “without affecting HDL cholesterol” and the total cholesterol levels entry is “significantly reduced total cholesterol levels”.

Regarding `Cc1ccc(-n2ncc3c2C(C)(C)C2CCC4(C)C(C(=O)C=C5C6CC(C)(C(=O)O)CCC6(C)CCC54C)C2(C)C3)cc1` (stereo not shown) [FC‐122], the “fold more potent than the alpha epimer” value on hPTP1B1–400 [1] (beta epimer vs alpha epimer (FC‐114 vs 3c, FC‐122 vs 5c), hPTP1B1–400 IC50) is listed as 1.3 fold. Moreover, the half-maximal inhibitory concentration (IC50) on hPTP1B1–400 [1] is 1150 ± 40 nM; at TCPTP, over 100000 nM; at hPTP1B1–285, 25100 ± 850 nM. Also, at TCPTP, the “TCPTP inhibition (in words)” value is on record as “did not inhibit TCPTP”. For the same compound, the “doses at which safe” value in data set [3] is listed as “below 2000 mg kg^−1”. Also, the “times better potency against PTP1B than 18β‐GA” value in the data set on PTP1B is listed as 14 times. The “type of PTP1B inhibition” value with PTP1B is reported as “uncompetitive inhibitor”. In addition, the HepG2 cell viability entry is “did not compromise HepG2 cell viability” in the data set on HepG2 cells and “No significant differences” in the data set with HepG2 cells (listed as FC-122). In addition, the antidiabetic activity result in data set [4] is reported as “showed antidiabetic activity”.
